Source: patent US7306789B2, “Method of stimulating hair growth using benzopyrans” (Warner-Lambert Company, LLC, priority 2002, dated 2007)
Values belong to the compound of their own block, whether it stands above or below them.

How the values were obtained:
[1] = system: Female C3H/HeN mice; assay: Mouse hair growth model (topical administration); assay type: in vivo; conditions: for Day on which 50% incidence of hair growth occurred: topical
Procedure: The effect of the benzopyran compound (3S,4R)-3,4-dihydro-4-(2,3-dihydro-2-methyl-3-oxopyridazin-6-yl)oxy-3-hydroxy-6-(3-hydroxyphenyl)sulphonyl-2,2,3-trimethyl-2H-benzo[b]pyran (Compound 1) on hair growth was evaluated by topical administration of the compound to mice. Compound 1 may be made according to the methods described in U.S. Pat. Nos. 5,912,244 and 6,071,938.
Female C3H/HeN mice, 42-46 days old (Charles River Laboratories, Raleigh, N.C.) were used for the study. The hair follicles of mice at this age are in the second telogen phase, which usually lasts from 6 to 9 weeks, providing a wide enough window to test compounds for their ability to induce earlier onset of anagen. Only mice with pink skin, a visual indication of the telogen phase, were selected for inclusion in the study.
Test compounds, including Compound 1, the potassium channel opener minoxidil (marketed as Rogaine® containing 2% minoxidil), and cyclosporin A, were dissolved in a vehicle consisting of propylene glycol (30%) and ethanol (70%). A test compound dissolved in vehicle, or a vehicle control (30/70 propylene glycol/ethanol, unless otherwise specified) was applied topically to the clipped dorsal region of the mice in each test group (7-10 mice) in a volume of 20 μl/cm^2. Treatments were applied once or twice daily, 5 days/week.
The treatment area was observed and graded for signs of hair growth and local skin irritation. The hair growth response was quantified by recording, for each animal, the day on which signs of hair growth first appeared over the treated area. The first sign of anagen was the darkening of skin color as melanocytes in the follicles started to synthesize melanin in preparation for the production of pigmented hairs. The response time was measured as the number of days following initiation of treatment when hair growth was present in 50% of the mice in a given group.

[2] = In vitro metabolism experiments (conjugation); assay type: in vitro ADME
Description: (§1) The compound is cleared by conjugation to produce the glucuronide and sulfate metabolites. The compound and its metabolites are rapidly taken up by the liver and excreted in the bile. Thus, following topical administration, any absorbed benzopyran is subject to high hepatic extraction, and thus low systemic exposure.

[3] = In vivo clearance in rat; conditions: low exposure to unchanged drug following oral or systemic administration
Description: as §1

[4] = In vivo clearance in dog; conditions: low exposure to unchanged drug following oral or systemic administration
Description: as §1

[5] = In vivo clearance in human; conditions: low exposure to unchanged drug following oral or systemic administration
Description: as §1

- Behaviour of drug on the skin ([1]; concentrations greater than 1%, vehicle propylene glycol/ethanol): precipitation of drug on the skin
- Rate of conjugation [2]: high
- Clearance [3]: rapid clearance
- Clearance [4]: rapid clearance
- Clearance [5]: rapid clearance
Compound: Cn1nc(O[C@@H]2c3cc(S(=O)(=O)c4cccc(O)c4)ccc3OC(C)(C)[C@@]2(C)O)ccc1=O [Compound 1, (3S,4R)-3,4-dihydro-4-(2,3-dihydro-2-methyl-3-oxopyridazin-6-yl)oxy-3-hydroxy-6-(3-hydroxyphenyl)sulphonyl-2,2,3-trimethyl-2H-benzo[b]pyran]
- Quality of hair growth over the treated area ([1]; all cases of hair growth stimulation): full and thick hair growth
- Hair growth stimulation ([1]; applied topically at 0.3% or 1% once or twice daily for five days or up to 4 weeks): stimulated hair growth
- Efficacy relative to lower doses ([1]; concentrations greater than 1%): less efficacious than lower doses
- Hair growth ([1]; concentrations lower than 0.3% (0.1% to 0.03%)): not observed
- Local irritation or other adverse effects ([1]; mice treated for 2 weeks with 5%): No local irritation or other adverse effects
- Day on which 50% incidence of hair growth occurred ([1]; dose 0.03%, 1 dose/day, duration 1 week, study 5 (vehicle >35)): >35 days
- Day on which 50% incidence of hair growth occurred ([1]; dose 0.03%, 1 dose/day, duration 1 week, study 6 (vehicle >35)): >35 days
- Day on which 50% incidence of hair growth occurred ([1]; dose 0.03%, 1 dose/day, duration 1 week, study 7 (vehicle >35)): >35 days
- Day on which 50% incidence of hair growth occurred ([1]; dose 0.03%, 1 dose/day, duration 1 week, study 9 (vehicle >35)): >35 days
- Day on which 50% incidence of hair growth occurred ([1]; dose 0.1%, 1 dose/day, duration 1 week, study 5 (vehicle >35)): >35 days
- Day on which 50% incidence of hair growth occurred ([1]; dose 0.1%, 1 dose/day, duration 1 week, study 6 (vehicle >35)): >35 days
- Day on which 50% incidence of hair growth occurred ([1]; dose 0.3%, 1 dose/day, duration 1 week, study 4 (vehicle 25)): 11 days
- Day on which 50% incidence of hair growth occurred ([1]; dose 0.3%, 1 dose/day, duration 1 week, study 5 (vehicle >35)): >35 days
- Day on which 50% incidence of hair growth occurred ([1]; dose 0.3%, 1 dose/day, duration 1 week, study 6 (vehicle >35)): >35 days
- Day on which 50% incidence of hair growth occurred ([1]; dose 0.3%, 1 dose/day, duration 1 week, study 7 (vehicle >35)): 14 days
- Day on which 50% incidence of hair growth occurred ([1]; dose 0.3%, 1 dose/day, duration 1 week, study 9 (vehicle >35)): 16 days
- Day on which 50% incidence of hair growth occurred ([1]; dose 0.3%, 1 dose/day, duration 1 week, study 10 (vehicle >35)): 21 days
- Day on which 50% incidence of hair growth occurred ([1]; dose 0.3%, 1 dose/day, duration 1 week, study 11 (vehicle 56)): 25 days
- Day on which 50% incidence of hair growth occurred ([1]; dose 0.3%, 1 dose/day, duration 1 week, study 12 (vehicle >35)): >35 days
- Day on which 50% incidence of hair growth occurred ([1]; dose 0.3%, 1 dose/day, duration 1 week, study 13 (vehicle 56)): 28 days
- Day on which 50% incidence of hair growth occurred ([1]; dose 0.3%, 1 dose/day, duration 4 weeks, study 10 (vehicle >35)): 23 days
- Day on which 50% incidence of hair growth occurred ([1]; dose 0.3%, 1 dose/day, duration 4 weeks, study 12 (vehicle >35)): 16 days
- Day on which 50% incidence of hair growth occurred ([1]; dose 0.3%, 1 dose/day, duration 4 weeks, study 13 (vehicle 56)): 35 days
- Day on which 50% incidence of hair growth occurred ([1]; dose 1%, 1 dose/day, duration 1 week, study 3 (vehicle 21)): 14 days
- Day on which 50% incidence of hair growth occurred ([1]; dose 1%, 1 dose/day, duration 1 week, study 4 (vehicle 25)): 11 days
- Day on which 50% incidence of hair growth occurred ([1]; dose 1%, 1 dose/day, duration 1 week, study 5 (vehicle >35)): >35 days
- Day on which 50% incidence of hair growth occurred ([1]; dose 1%, 1 dose/day, duration 1 week, study 8 (vehicle >35)): 21 days
- Day on which 50% incidence of hair growth occurred ([1]; dose 1%, 1 dose/day, duration 1 week, study 9 (vehicle >35)): 28 days
- Day on which 50% incidence of hair growth occurred ([1]; dose 1%, 1 dose/day, duration 1 week, study 10 (vehicle >35)): >35 days
- Day on which 50% incidence of hair growth occurred ([1]; dose 1%, 1 dose/day, duration 1 week, study 12 (vehicle >35)): 16 days
- Day on which 50% incidence of hair growth occurred ([1]; dose 1%, 1 dose/day, duration 4 weeks, study 10 (vehicle >35)): >35 days
- Day on which 50% incidence of hair growth occurred ([1]; dose 1%, 1 dose/day, duration 4 weeks, study 12 (vehicle >35)): 18 days
- Day on which 50% incidence of hair growth occurred ([1]; dose 1%, 2 doses/day, duration 2 weeks, study 1 (vehicle >35)): 25 days
- Day on which 50% incidence of hair growth occurred ([1]; dose 1%, 2 doses/day, duration 2 weeks, study 2 (vehicle >35)): 28 days

Compound: Nc1cc(N2CCCCC2)nc(N)[n+]1[O-] [Minoxidil, minoxidil, reference compound]
- Day on which 50% incidence of hair growth occurred ([1]; dose 2.5%, 1 dose/day, duration 1 week, study 13 (vehicle 56)): 53 days
- Day on which 50% incidence of hair growth occurred ([1]; dose 2.5%, 1 dose/day, duration 4 weeks, study 13 (vehicle 58)): 39 days
- Day on which 50% incidence of hair growth occurred ([1]; dose 5%, 1 dose/day, duration 1 week, study 13 (vehicle 56)): 56 days
- Day on which 50% incidence of hair growth occurred ([1]; dose 5%, 1 dose/day, duration 4 weeks, study 13 (vehicle 58)): 37 days
